Measured values as given in patent US20230405095A1, “DOSING REGIMEN” (VIIV HEALTHCARE UK (NO. 7) LIMITED, priority 2022, published 2023).
“And” between values parts separate entries of the source, which are not always exact repeats. Identical values can stand only once. Like-named read-outs stand apart in the source and are kept apart here.

What was measured:
[1] = system: HIV-1 strains; details: integrase strand transfer inhibitor; broad range of HIV-1 strains; cited from earlier work
[2] = CAB Cmax safety threshold; type: in vivo; details: CAB plasma concentration; read-out: safety threshold: Cmax not associated with any toxicity
[3] = Clinical PK of single SC injection of CAB200 with rHuPH20 (Studies 212482 and 218012); type: in vivo, healthy adult participants; details: SC with rHuPH20, dose level of 3200 mg or lower
Protocol: In a Phase 1 open-label, dose-escalation study to investigate the safety, tolerability and pharmacokinetics of single-dose administration of various CAB formulations with and without rHuPH20 in healthy adult participants, CAB200 at doses of 800, 1600 and 3200 mg have been administered with rHuPH20 (10,000 IU). rHuPH20 and CAB formulations were administered sequentially; subcutaneous (SC) administration by a health care provider (HCP) is via a butterfly needle and slow SC infusion in the abdominal SC tissue using a syringe pump.
A summary of CAB200 LA SC PK data with rHuPH20 is set forth in the Table below. • In Study 212482, single SC injection of CAB200 (2 mL/400 mg) with rHuPH20 (5000 units) was studied in Cohort 4 h. • In Study 218012, single SC injection of CAB200 with rHuPH20 was studied in cohorts A1 (4 mL/800 mg CAB200), A2 (8 mL/1600 mg CAB200) and A3 (16 mL/3200 mg CAB200). The dose of rHuPH20 was 10000 units. In both studies, rHuPH20 was injected first, followed by SC injection of CAB200.

[4] = Blood pharmacokinetics of cabotegravir after a single subcutaneous administration with or without rHuPH20; type: in vivo, male Sprague-Dawley rats; details: for Tmax / half-life / AUC(0-t) / Cmax / AUC (0-tlast) / T½: rat blood; for half-life: read-out: T½ (converted); for AUC(0-t): read-out: AUC (0-tlast)
Protocol: Cabotegravir (free acid) was supplied by the Department of Pharmaceutical Development, at GSK, Upper Providence (UP), as a wet bead milled suspension (WBM), of nominal 200 mg/mL active concentration, white to slightly pink in appearance to be used for subcutaneous (SC) injection. The test article was milled and supplied in an aqueous vehicle (see Table 1). The test article was filled into vials, stoppered, sealed and subjected to gamma sterilization at between 25-45 kGy.
Twelve male Sprague-Dawley rats (body weight approximately 275-300 grams upon arrival), from Charles River Laboratories, Raleigh, were used in this study. Rats were randomized by number one day prior to the start of study. All rats were euthanized at study end.
Dose volumes administered for cabotegravir (target concentration of 200 mg/mL) were based on animal weights obtained just prior to dosing to achieve a target dosage of 10 mg/kg (groups 1 and 2) and 5 mg/kg (groups 3 and 4). Test article was resuspended prior to dosing by inverting supplied vials and checking vial bottom for non-resuspended sediments. Syringes used to dose cabotegravir were weighed pre- and post-dose to determine exact amount of cabotegravir administered. Rats were lightly anesthetized under isoflurane for a short period to perform the dosing procedure. Injection sites were shaved immediately prior to dosing, wiped with alcohol and allowed to dry. For groups 1 and 3, the cabotegravir doses were injected subcutaneously into the lower scapular region. After removing the dosing needle, minimal, but adequate, pressure was applied to the skin at the injection site (i.e., to keep the site still and closed) for approximately 1 minute to enable coagulation and sealing of the puncture. The sites were observed immediately after the needle was withdrawn to note any dose leakage. For groups 2 and 4, the rHuPH20 was injected subcutaneously first (approximately 3000 units in 100 μL, these syringes were not weighed), immediately followed by the Cabotegravir injection with the goal of injecting both formulations in the same subcutaneous space of the lower scapular region. After removing the second dosing needle, minimal, but adequate, pressure was applied to the skin at the injection site (i.e., to keep the site still and closed) for approximately 1 minute to enable coagulation and sealing of the puncture. Any dose leakage was noted. Injection sites were monitored daily for the first week of study and then weekly for the remainder of the study and observations recorded. Body weights were recorded on day 0 and then weekly for the remainder of the study.
Blood samples were collected via lateral vein or tail tip amputation. On study Day 0, following subcutaneous injection, blood samples (approximately 75 μL/rat/time point) were collected into 500 μL K2 EDTA tubes at 1, 2, 4 and 8 hr. Samples were then collected at 24 hrs., 48 hrs., and on Days 3, 7, 14, 21, 28, 56 and 84. Exactly 75 μL of whole blood was pipetted into a new tube containing 75 μL of sterile water. Samples were vortexed and placed on dry ice immediately. Samples were stored at −80° C. until transferred to Yinghe Li (DMPK, US) for analysis.
Rat blood: water samples were analyzed for cabotegravir using an analytical method based on protein precipitation, followed by UPLC/MS/MS analysis. The lower limit of quantification (LLQ) for cabotegravir was 5 ng/mL using a 150 μL aliquot of rat blood: water with a higher limit of quantification (HLQ) of 20000 ng/mL. Analyst software version 1.7.1 was used to acquire and process LC-MS/MS data. The applicable analytical runs met all predefined run acceptance criteria.
Pharmacokinetic analysis of cabotegravir blood concentration-time data was performed by a non-compartmental method using Phoenix WinNonlin®, Version 8.1 software. All computations utilized nominal sampling times and doses for the study. […]

[5] = male, Sprague-Dawley, rat, whole blood, sc, 5 mg/kg, single SC 5 mg/kg, with rHuPH20 approx. 3000 units SC (Group 4), mean ± SD
[6] = male, Sprague-Dawley, rat, whole blood, sc, 5 mg/kg, single SC 5 mg/kg, without rHuPH20 (Group 3), individual animals
[7] = male, Sprague-Dawley, rat, whole blood, sc, 5 mg/kg, single SC 5 mg/kg, without rHuPH20 (Group 3), mean ± SD
[8] = male, Sprague-Dawley, rat, whole blood, sc, 10 mg/kg, single SC 10 mg/kg, with rHuPH20 approx. 3000 units SC (Group 2), mean ± SD
[9] = single SC 5 mg/kg, with rHuPH20 approx. 3000 units SC (Group 4), individual animals, 5 mg/kg
[10] = single SC 5 mg/kg, without rHuPH20 (Group 3), individual animals, 5 mg/kg
[11] = single SC 10 mg/kg, with rHuPH20 approx. 3000 units SC (Group 2), individual animals, 10 mg/kg
[12] = single SC 10 mg/kg, without rHuPH20 (Group 1), individual animals, 10 mg/kg

Question: For `C[C@H]1CO[C@@H]2Cn3cc(C(=O)NCc4ccc(F)cc4F)c(=O)c(O)c3C(=O)N12` [Cabotegravir, N-((2,4-Difluorophenyl)methyl)-6-hydroxy-3-methyl-5,7-dioxo-2,3,5,7,11,11a hexahydro(1,3)oxazolo(3,2-a)pyrido(1,2-d)pyrazine-8-carboxamide], which potency [1] is on record?
Answer: subnanomolar

Question: And the Cmax [2]?
Answer: 22500 ng/mL

Question: And the “CAB SC Cmax versus safety threshold” value [3]?
Answer: < 22.5 µg/mL

Question: What about the Tmax ([4]; male, Sprague-Dawley, rat, whole blood, sc, 5 mg/kg, single SC 5 mg/kg, with rHuPH20 approx. 3000 units SC (Group 4), individual animals, read-out: Tmax) of the same molecule?
Answer: 14.2 days

Question: And the half-life ([4]; male, Sprague-Dawley, rat, whole blood, sc, 5 mg/kg, single SC 5 mg/kg, with rHuPH20 approx. 3000 units SC (Group 4), individual animals)?
Answer: 10 days

Question: And the AUC(0-t) [4, 5]?
Answer: 2800 ± 993 µg·h/mL

Question: And the Cmax ([4]; male, Sprague-Dawley, rat, whole blood, sc, 5 mg/kg, single SC 5 mg/kg, with rHuPH20 approx. 3000 units SC (Group 4), mean ± SD, read-out: Cmax)?
Answer: 3800 ± 1600 ng/mL

Question: What about the half-life [4, 5] of the same molecule?
Answer: 7.5 days

Question: And the Tmax ([4]; male, Sprague-Dawley, rat, whole blood, sc, 5 mg/kg, single SC 5 mg/kg, with rHuPH20 approx. 3000 units SC (Group 4), median, read-out: Tmax)?
Answer: 14.2 days

Question: What about the AUC(0-t) [4, 6] of the same molecule?
Answer: 4540 µg·h/mL

Question: What about the Cmax ([4]; male, Sprague-Dawley, rat, whole blood, sc, 5 mg/kg, single SC 5 mg/kg, without rHuPH20 (Group 3), individual animals, read-out: Cmax) of the same molecule?
Answer: 7600 ng/mL

Question: What about the Tmax ([4]; male, Sprague-Dawley, rat, whole blood, sc, 5 mg/kg, single SC 5 mg/kg, without rHuPH20 (Group 3), individual animals, read-out: Tmax) of the same molecule?
Answer: 14.2 days

Question: What about the half-life [4, 6] of the same molecule?
Answer: 8.33 days

Question: What about the AUC(0-t) [4, 7] of the same molecule?
Answer: 4400 ± 903 µg·h/mL

Question: And the Cmax ([4]; male, Sprague-Dawley, rat, whole blood, sc, 5 mg/kg, single SC 5 mg/kg, without rHuPH20 (Group 3), mean ± SD, read-out: Cmax)?
Answer: 7000 ± 1500 ng/mL

Question: What about the half-life [4, 7] of the same molecule?
Answer: 8.33 days

Question: And the Tmax ([4]; male, Sprague-Dawley, rat, whole blood, sc, 5 mg/kg, single SC 5 mg/kg, without rHuPH20 (Group 3), median, read-out: Tmax)?
Answer: 14.2 days

Question: What about the AUC(0-t) ([4]; male, Sprague-Dawley, rat, whole blood, sc, 10 mg/kg, single SC 10 mg/kg, with rHuPH20 approx. 3000 units SC (Group 2), individual animals) of the same molecule?
Answer: 6280 µg·h/mL

Question: What about the Cmax ([4]; male, Sprague-Dawley, rat, whole blood, sc, 10 mg/kg, single SC 10 mg/kg, with rHuPH20 approx. 3000 units SC (Group 2), individual animals, read-out: Cmax) of the same molecule?
Answer: 10000 ng/mL

Question: And the Tmax ([4]; male, Sprague-Dawley, rat, whole blood, sc, 10 mg/kg, single SC 10 mg/kg, with rHuPH20 approx. 3000 units SC (Group 2), individual animals, read-out: Tmax)?
Answer: 14.2 days

Question: What about the AUC(0-t) [4, 8] of the same molecule?
Answer: 7730 ± 1930 µg·h/mL

Question: What about the Cmax ([4]; male, Sprague-Dawley, rat, whole blood, sc, 10 mg/kg, single SC 10 mg/kg, with rHuPH20 approx. 3000 units SC (Group 2), mean ± SD, read-out: Cmax) of the same molecule?
Answer: 9100 ± 2100 ng/mL

Question: What about the half-life [4, 8] of the same molecule?
Answer: 15 days

Question: What about the Tmax ([4]; male, Sprague-Dawley, rat, whole blood, sc, 10 mg/kg, single SC 10 mg/kg, with rHuPH20 approx. 3000 units SC (Group 2), median, read-out: Tmax) of the same molecule?
Answer: 14.2 days

Question: What about the AUC(0-t) ([4]; male, Sprague-Dawley, rat, whole blood, sc, 10 mg/kg, single SC 10 mg/kg, without rHuPH20 (Group 1), individual animals) of the same molecule?
Answer: 5640 µg·h/mL

Question: And the Tmax ([4]; male, Sprague-Dawley, rat, whole blood, sc, 10 mg/kg, single SC 10 mg/kg, without rHuPH20 (Group 1), individual animals, read-out: Tmax)?
Answer: 14.2 days

Question: And the half-life ([4]; male, Sprague-Dawley, rat, whole blood, sc, 10 mg/kg, single SC 10 mg/kg, without rHuPH20 (Group 1), mean ± SD (animal 12 excluded))?
Answer: 13.8 days

Question: What about the AUC(0-t) ([4]; male, Sprague-Dawley, rat, whole blood, sc, 10 mg/kg, single SC 10 mg/kg, without rHuPH20 (Group 1), mean ± SD) of the same molecule?
Answer: 7320 ± 2320 µg·h/mL

Question: What about the Cmax ([4]; male, Sprague-Dawley, rat, whole blood, sc, 10 mg/kg, single SC 10 mg/kg, without rHuPH20 (Group 1), mean ± SD, read-out: Cmax) of the same molecule?
Answer: 8000 ± 3500 ng/mL

Question: What about the Tmax ([4]; male, Sprague-Dawley, rat, whole blood, sc, 10 mg/kg, single SC 10 mg/kg, without rHuPH20 (Group 1), median, read-out: Tmax) of the same molecule?
Answer: 14.2 days

Question: What about the “AUC (0-tlast)” value [4, 9] of the same molecule?
Answer: 3348 µg·h/mL and 1654 µg·h/mL and 3397 µg·h/mL

Question: What about the Cmax [4, 9] of the same molecule?
Answer: 3200 ng/mL and 2600 ng/mL and 5700 ng/mL

Question: And the Tmax [4, 9]?
Answer: 7.08 days

Question: And the T½ [4, 9]?
Answer: 160 h and 140 h

Question: And the “AUC (0-tlast)” value [4, 10]?
Answer: 5221 µg·h/mL and 3432 µg·h/mL

Question: And the Cmax [4, 10]?
Answer: 5200 ng/mL

Question: What about the Tmax [4, 10] of the same molecule?
Answer: 7.08 days

Question: What about the T½ [4, 10] of the same molecule?
Answer: 220 h and 170 h

Question: And the “AUC (0-tlast)” value [4, 11]?
Answer: 7008 µg·h/mL and 9916 µg·h/mL

Question: What about the Cmax [4, 11] of the same molecule?
Answer: 6800 ng/mL

Question: What about the T½ [4, 11] of the same molecule?
Answer: 210 h and 360 h and 510 h

Question: What about the “AUC (0-tlast)” value [4, 12] of the same molecule?
Answer: 9970 µg·h/mL and 6333 µg·h/mL

Question: And the Cmax [4, 12]?
Answer: 7100 ng/mL and 12000 ng/mL and 5100 ng/mL

Question: And the T½ [4, 12]?
Answer: 430 h and 230 h and 1100^b^ h

Question: And the “systemic exposure with versus without administration of rHuPH20” value ([4]; rats, single SC 5 and 10 mg/kg, rHuPH20 3000 U)?
Answer: similar

Question: What about the “systemic exposure as defined by AUC: dose proportionality” value ([4]; rats, single SC, target doses of 5 and 10 mg/kg) of the same molecule?
Answer: approximately dose proportional
